# After the bases stand the sugars from the 5' end (letter, count) and the backbone: PS all phosphorothioate, else s phosphorothioate and o phosphodiester by linkage. Methylation of C is not given here. e = 2'-O-(2-methoxyethyl) (MOE); l = locked nucleic acid (LNA); d = 2'-deoxy (DNA)
# Columns and labels:
# DGAT2 = settings: ASO
# SNHG14 = settings: ASO
# [1] = Mouse Primary Neuronal Cell, 0.005 µM
Sequence,"target mRNA inhibition (SNHG14; Human Neuronal Cell, 7.5 µM) [%]","target mRNA inhibition (SNHG14; Human Neuronal Cell, 0.2 µM) [%]","target mRNA inhibition (SNHG14; Human Neuronal Cell, 1 µM) [%]",also measured
"TTGAAAGCAAATAGTCTATG (sugars e5 d10 e5, PS)",–,–,–,"target mRNA inhibition (DGAT2; HepG2, 0.12 µM): 42%"
"GTGTCTTCACCAGCTGGATG (sugars e5 d10 e5, PS)",–,–,–,"target mRNA inhibition (DGAT2; HepG2, 0.12 µM): 49%; target mRNA inhibition (DGAT2; HepG2, 2.5 µM): 16%"
"CAGGACTTGGTACCTGATTC (sugars e5 d10 e5, PS)",–,–,–,"target mRNA inhibition (DGAT2; HepG2, 0.12 µM): 35%"
"GCTTGGAGTAGGGCACCAGC (sugars e5 d10 e5, PS)",–,–,–,"target mRNA inhibition (DGAT2; HepG2, 0.12 µM): 45%"
"TTGAAATCCAATGCACCTTG (sugars e5 d10 e5, PS)",–,–,–,"target mRNA inhibition (DGAT2; HepG2, 2.5 µM): 62%; target mRNA inhibition (DGAT2; HepG2, 10 µM): 93%"
"GGTGGGAAACTTGGAAACTT (sugars e5 d10 e5, PS)",–,–,–,"target mRNA inhibition (DGAT2; HepG2, 0.12 µM): 37%"
"AGTTCTACTATACTTTCC (sugars l1 d13 l1 d1 l2, PS)",47,–,–,–
"TTTTTTTCTTACTATCTTCA (sugars ldddllddddddddddldll, PS)",50,–,–,–
"AAATTATTTATACACCATCA (sugars l4 d10 l1 d2 l3, PS)",66,–,–,–
"TTCTGTATACACCATCC (sugars ldldlddddddddddll, PS)",62,–,–,–
"ATCATTCTCAACAATTAAA (sugars l4 d8 l7, PS)",27,–,–,–
"TCAAAGCACACCACCAC (sugars l2 d12 l3, PS)",–,34,47,–
"TTCCATGCAAACTTTA (sugars l4 d10 l2, PS)",–,49,64,–
"TTATAGCCATTCTATCT (sugars l2 d9 l1 d1 l4, PS)",49,–,–,–
"ATTGATTCAATTCCCTT (sugars ldlddddddddllldll, PS)",47,–,–,–
"AAATTGTCTACCTTCCT (sugars l2 d12 l3, PS)",–,29,19,–
"GCTAATTTAAATTTCC (sugars l4 d10 l2, PS)",–,49,67,–
"CTGTTTATACCCTTTCCA (sugars ldldldddddddddddll, PS)",56,–,–,–
"TAAAATTATTTATACACCAT (sugars l7 d6 l1 d3 l3, PS)",51,–,–,–
"ATTGATTCAATTCCCTT (sugars ldllddddddddlddll, PS)",74,–,–,–
"CAACATTATTAACCACCTT (sugars lldllddddddddddldll, PS)",53,–,–,–
"TATTGAACCAATTCTA (sugars l3 d10 l3, PS)",–,34,47,–

Sequence,"target mRNA inhibition (SNHG14; Human Neuronal Cell, 7.5 µM) [%]","target mRNA inhibition (SNHG14; Human Neuronal Cell, 0.2 µM) [%]","target mRNA inhibition (SNHG14; Human Neuronal Cell, 1 µM) [%]",also measured
"GCACATTCTTTCTATAC (sugars l1 d1 l3 d8 l4, PS)",59,–,–,–
"ATCATTCTCAACAATTAAA (sugars llllldddddddlldldll, PS)",41,–,–,–
"TACACTTAATTATACTTCCA (sugars lddldldddddddlldddll, PS)",55,–,–,–
"TCAAGAATTCTCTCCTT (sugars l2 d11 l4, PS)",–,47,51,–
"TGTTTATACCCTTTCCAA (sugars lldlddddddddddldll, PS)",57,–,–,–
"CCTACATCTCATACTT (sugars l2 d10 l4, PS)",–,–,–,target mRNA inhibition (SNHG14; [1]): 96.5%
"CTAAGCTCCATATTTA (sugars l4 d10 l2, PS)",–,21,42,–
"TTACCTACATCTCATACTT (sugars l3 d13 l3, PS)",–,-12,-3,"target mRNA inhibition (SNHG14; Human Neuronal Cell, 5 µM): 13%; target mRNA inhibition (SNHG14; [1]): 86.7%"
"TTTCCATTTATTTCCATTT (sugars lddddldddddddldllll, PS)",54,–,–,–
"TTTATCAATATCTTCTCA (sugars lddlllddddddddldll, PS)",67,–,–,–
"TACTATCTTTGACATT (sugars l4 d10 l2, PS)",–,49,58,–
"TGTTTATACCCTTTCCAA (sugars l1 d4 l1 d9 l3, PS)",56,–,–,–
"ATTTATTTCCATTTATTTTC (sugars ldlddlddddddddllldll, PS)",58,–,–,–
"CAAGTTTCCTATATTC (sugars l4 d10 l2, PS)",–,62,64,–
"CCTCAACTTCACCAAT (sugars l2 d10 l4, PS)",–,37,49,–
"CCCACCAAAGGATATATT (sugars l3 d12 l3, PS)",–,-28,33,"target mRNA inhibition (SNHG14; Human Neuronal Cell, 5 µM): 16%"
"ATTGATTCAATTCCCTT (sugars l2 d11 l4, PS)",–,62,69,–
"TATCAGTTATCCAATA (sugars l4 d10 l2, PS)",–,42,51,–
"AAAATTATTTATACACCATC (sugars lldllldddddddlddllll, PS)",52,–,–,–
"TTATAGCCATTCTATCT (sugars l1 d10 l3 d1 l2, PS)",51,–,–,–
"CCTAAAGATCCCATCAC (sugars l2 d12 l3, PS)",–,34,51,–
"AGTTCACTACTATTAC (sugars l3 d10 l3, PS)",–,52,63,–

Sequence,"target mRNA inhibition (SNHG14; Human Neuronal Cell, 7.5 µM) [%]","target mRNA inhibition (SNHG14; Human Neuronal Cell, 0.2 µM) [%]","target mRNA inhibition (SNHG14; Human Neuronal Cell, 1 µM) [%]",also measured
"CTTCTTGTTTATCCCAA (sugars l2 d11 l4, PS)",–,57,68,–
"TTTTATACCTTTCTTTAACC (sugars ldlddddddddddlddllll, PS)",64,–,–,–
"ATCTCATGACCACCTAA (sugars l3 d11 l3, PS)",–,54,56,–
"TTTATCAATATCTTCTCACT (sugars lddddlddddddddldddll, PS)",34,–,–,–
"CTTGCATTTCTAATTAC (sugars l3 d11 l3, PS)",–,38,35,–
"TTATACCTTTCTTTAACCCT (sugars lddddlddddddddldddll, PS)",58,–,–,–
"TTATAGCCATTCTATCT (sugars ldddldddddddlldll, PS)",24,–,–,–
"CTGTATACACCATCCCA (sugars l1 d2 l2 d10 l2, PS)",61,–,–,–
"TTACACTTAATTATACTTCC (sugars l2 d4 l1 d11 l2, PS)",41,–,–,–
"TGTTTCCATCTACTATTA (sugars ldlldlddddddddddll, PS)",60,–,–,–
"ACCTACATCTCATACTT (sugars l3 d11 l3, PS)",–,1,-10,"target mRNA inhibition (SNHG14; Human Neuronal Cell, 5 µM): 6%; target mRNA inhibition (SNHG14; [1]): 94.2%"
"CCATTTATTTCCATTTATTT (sugars ldlddlddddddddlddlll, PS)",59,–,–,–
"TTTACTCTGCAATACA (sugars l2 d10 l4, PS)",–,45,60,–
"GATCATTCTCAACAATT (sugars l5 d6 l1 d1 l4, PS)",0,–,–,–
"CTGTATACACCATCCCA (sugars ldlddddddddldddll, PS)",52,–,–,–
"TTTATCAATATCTTCTCACT (sugars lddlddldddddddddddll, PS)",28,–,–,–
"CTACACATCTTGTATAC (sugars l3 d11 l3, PS)",–,40,52,–
"TTATTCTTACCGTCTTT (sugars l2 d11 l4, PS)",–,61,65,–
"TATCTTTCCATTTATTTCC (sugars lddddldddddddddldll, PS)",52,–,–,–
"GTTTCCATCTACTATTAA (sugars llddldddddddldldll, PS)",31,–,–,–

# Source: the OligoGym collection
